# Experimental data taken from PubChem BioAssay (NCI).
#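 Values below derive from 48-hour exposures of cells grown in 96-well plates, with endpoints linearly interpolated between the two concentrations bracketing the appropriate inhibition level. At the GI50, growth is halved. TGI denotes the concentration required for complete inhibition of growth.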
# How the values were obtained:
# Assay in all cases: DTP human tumour cell line panel, 48 h
# KM12 colon = test system: KM12 colon
# UACC-62 melanoma = test system: UACC-62 melanoma
# RXF 393 renal = test system: RXF 393 renal
# MOLT-4 leukemia = test system: MOLT-4 leukemia
# SK-MEL-28 melanoma = test system: SK-MEL-28 melanoma
# A549 NSCLC = test system: A549 NSCLC
# HOP-62 NSCLC = test system: HOP-62 NSCLC
# CCRF-CEM leukemia = test system: CCRF-CEM leukemia
# SK-OV-3 ovarian = test system: SK-OV-3 ovarian
# COLO 205 colon = test system: COLO 205 colon
SMILES,TGI (KM12 colon),TGI (UACC-62 melanoma),TGI (RXF 393 renal),TGI (MOLT-4 leukemia),TGI (SK-MEL-28 melanoma),TGI (A549 NSCLC),TGI (HOP-62 NSCLC),TGI (CCRF-CEM leukemia),TGI (SK-OV-3 ovarian),TGI (COLO 205 colon),GI50 (KM12 colon),GI50 (CCRF-CEM leukemia),GI50 (UACC-62 melanoma),GI50 (COLO 205 colon),GI50 (RXF 393 renal),GI50 (MOLT-4 leukemia),GI50 (SK-MEL-28 melanoma),GI50 (A549 NSCLC),GI50 (HOP-62 NSCLC)
NCc1ccc(C(=O)O)cc1,> 100 µM,> 100 µM,> 100 µM,> 100 µM,> 100 µM,> 100 µM,> 100 µM,,,,,,,,,,,,
CCO/N=[N+](\[O-])N(CC)CC,> 100 µM,> 100 µM,> 100 µM,> 100 µM,> 100 µM,> 100 µM,> 100 µM,> 100 µM,> 100 µM,,,,,,,,,,
COc1cc(C2c3cc4c(cc3[C@@H](Nc3cccc(C(C)=O)c3)C3COC(=O)[C@H]23)OCO4)cc(OC)c1O (stereo partly drawn),5.67 µM,4.67 µM,5.4 µM,0.129 µM,50.6 µM,1.99 µM,0.538 µM,0.231 µM,5.28 µM,5.05 µM,,,,,,,,,
CC[n+]1c(/C=C/c2ccc(N(CCCl)CCCl)cc2)ccc2cc(NC(=O)/C=C/c3ccccc3)ccc21,1.58 µM,2.28 µM,2.84 µM,1.69 µM,2.03 µM,6.09 µM,1.74 µM,0.831 µM,2.81 µM,0.222 µM,,,,,,,,,
ClCc1c(Cl)c(Cl)c(Cl)c(CCl)c1Cl,3.48 µM,3.13 µM,3.08 µM,5.86 µM,3.96 µM,16.3 µM,4.25 µM,3.28 µM,,3.33 µM,1.85 µM,0.841 µM,1.61 µM,1.83 µM,1.71 µM,2.41 µM,1.95 µM,4.8 µM,2.15 µM
CN(C)c1ccc(N=Nc2ccccn2)cc1,> 100 µM,> 100 µM,> 100 µM,40.9 µM,> 100 µM,> 100 µM,> 100 µM,91.2 µM,> 100 µM,21.8 µM,,,,,,,,,
Brc1ccccc1-c1ncc(-c2ccccc2)o1,41.7 µM,> 100 µM,55.9 µM,49.6 µM,> 100 µM,> 100 µM,96.8 µM,54.7 µM,> 100 µM,39.5 µM,,,,,,,,,
COc1ccc(-c2cc(N3CCN(c4ccccc4)CC3)c(C#N)c(=O)o2)cc1,> 100 µM,,38 µM,> 100 µM,77.6 µM,> 100 µM,,> 100 µM,,> 100 µM,,,,,,,,,
COc1ccc(NC(=O)/C(CC2=Nc3ccc([N+](=O)[O-])cc3NC2O)=N\NC(=O)C[N+](C)(C)C)c(OC)c1 (stereo not drawn),> 100 µM,> 100 µM,> 100 µM,> 100 µM,> 100 µM,> 100 µM,> 100 µM,> 100 µM,> 100 µM,> 100 µM,,,,,,,,,
CCOC(=O)/C=C(\C)c1ccc(OC)cc1,> 100 µM,,> 100 µM,,> 100 µM,> 100 µM,,,,> 100 µM,,,,,,,,,
CC(C)C[P+](c1ccccc1)(c1ccccc1)c1ccccc1,20.7 µM,> 100 µM,,> 100 µM,> 100 µM,> 100 µM,> 100 µM,11.1 µM,87.4 µM,15.7 µM,,,,,,,,,
C=C1C(=O)OC2C1CC(O)/C(C)=C\CCC1(C)OC21 (stereo not drawn),> 100 µM,61.1 µM,31.8 µM,79.3 µM,91.1 µM,> 100 µM,49.3 µM,> 100 µM,> 100 µM,89.9 µM,,,,,,,,,
Cc1nc2ccccc2c(=O)[nH]1,> 100 µM,> 100 µM,> 100 µM,> 100 µM,> 100 µM,> 100 µM,> 100 µM,> 100 µM,> 100 µM,> 100 µM,,,,,,,,,
N#Cc1c(NC(=S)NC(=O)c2ccccc2)nc2c(c1-c1ccccc1)CCCC2,> 100 µM,> 100 µM,56.5 µM,> 100 µM,> 100 µM,> 100 µM,> 100 µM,> 100 µM,86.3 µM,> 100 µM,,,,,,,,,
CC(C)(Br)C1(O)CCCN1C(=O)c1ccccc1 (stereo not drawn),> 100 µM,> 100 µM,> 100 µM,> 100 µM,> 100 µM,> 100 µM,,> 100 µM,> 100 µM,> 100 µM,,,,,,,,,
CCC(C)C(=O)c1c(O)c(C/C=C(\C)CCC=C(C)C)c(O)c2c(C(O)CC)cc(=O)oc12 (stereo not drawn),11.4 µM,5.15 µM,7.19 µM,3.94 µM,5.57 µM,11.4 µM,4.08 µM,3.44 µM,10.8 µM,7.27 µM,,,,,,,,,
COc1ccc(NC(=O)/C(=C/c2ccc(N(CCC#N)CCC#N)cc2)NC(=O)c2cc([N+](=O)[O-])ccc2Cl)cc1,> 100 µM,> 100 µM,> 100 µM,> 100 µM,> 100 µM,89.7 µM,> 100 µM,> 100 µM,> 100 µM,> 100 µM,,,,,,,,,
NCc1ccccc1C1CSCSC1,> 100 µM,> 100 µM,> 100 µM,> 100 µM,> 100 µM,> 100 µM,,> 100 µM,> 100 µM,,,,,,,,,,
O=[N+]([O-])c1cn[n+]([O-])c2ccccc12,18.4 µM,,,,26.1 µM,30.1 µM,26.2 µM,,26.3 µM,26.5 µM,,,,,,,,,
